Reference: US10669242B2 (priority 2016, dated 2020)

Assays:
[1] = system: C. difficile strain VPI 10463; assay: Acute murine C. difficile infection model; format: in vivo, C57BL/6 mice; details: for weight loss, time course: acute infection, days after infection, 8 animals per group
From the text: In a hospital environment, C. difficile infection occurs when the patient receives an antibiotic treatment that disrupts the normal gut microflora and is exposed to C. difficile spores. The patient often fails to mount a protective immune response against the acute C. difficile infection. (Rupnik, Wilcox et al. 2009). To study the acute C. difficile infection, we established a murine C. difficile infection model. Details of the infection model are provided in the “Experimental Protocol” (below).
In brief, female C57BL/6 mice were administered the following antibiotics: colistin (0.042 units/mL), gentamicin (0.035 mg/mL), kanamycin (0.4 mg/mL), metronidazole (0.215 mg/mL) and vancomycin (0.045 mg/mL) in drinking water for 3 days. The administered antibiotics disrupted the normal gut microflora in mice. On the 4th day, mice received oral administration of 0.5 mL volume containing ˜100 spores produced from a virulent clinical C. difficile isolate (strain VPI 10463). In this acute murine C. difficile infection model, we observed a similar time course of infection when compared to that of clinical patients.
Using the developed murine C. difficile infection model (Example 67), we evaluated our test compounds for their efficacy in reducing weight loss and gut inflammation caused by the acute C. difficile infection. We tested the efficacy of Example 6a and Example 5ae and used eight (8) animals in each group.
We further tested the efficacy of the Example 6a, Example 5ae, Example 4cl, and Example 5al compounds by PO administration. Vancomycin was used as a positive control. Three (3) experiments were performed utilizing a total of five (5) to sixteen (16) animals in each group.
C. difficile strain VPI 10463 was grown for four (4) days in 10 ml of BHI in a Bactron anaerobic workstation (Shel Lab). The culture was centrifuged at 2,700 g for 10 minutes. The bacterial pellet was washed with 10 mL of PBS and the centrifugation was repeated. The pellet was then re-suspended in 10 mL of PBS, incubated at 56° C. for 10 minutes, and then was frozen at −20° C. until used. Titers of spore stocks were determined by serial dilution and plating onto BHI and with 1% taurocholate and counting of colonies after incubation for 24 hours at 37° C. using the GasPak EZ Anaerobe Pouch System.
We utilized an established C. difficile murine infection model (Chen, Katchar et al. 2008). To render them susceptible to infection, female C57BL/6 mice (˜10 weeks old and weighing ˜20 g) were administered the following antibiotics (Sigma Aldrich) in drinking water for 3 days (Days −6 to −3): colistin (0.042 units/mL), gentamicin (0.035 mg/mL), kanamycin (0.4 mg/mL), metronidazole (0.215 mg/mL) and vancomycin (0.045 mg/mL). Based upon an expected water consumption of 100 mL/kg/day, the approximate doses of these antibiotics will be as follows: colistin (4.2 units/kg/day), gentamicin (3.5 mg/kg/day), kanamycin (40 mg/kg/day), metronidazole (21.5 mg/kg/day) and vancomycin (4.5 mg/kg/day). The animals were provided with regular drinking water for two days (Day −2 and Day −1), and the next day (Day 0) they were administered clindamycin phosphate (1 mg/mL solution in PBS) at 10 mL/kg by intraperitoneal injection, for a final dose of 10 mg/kg body weight. The following day (Day 1), they were orally gavaged with ˜100 spores in a 0.5 ml volume.
Compounds were administered beginning ˜8 hours after infection, and the animals were dosed twice per day for two days (Days 2-3) with a total of four doses. Compounds were prepared as 5 mg/mL suspensions in 20% PEG-400, 0.4% carboxymethyl cellulose and 0.2% Tween 80 and administered at a dose of 10 mL/kg, for a final dose of 50 mg/kg body weight.
Animals were observed and weighed two (2) to (3) times daily. Animals that were obviously moribund or had lost >20% of their initial body weight were euthanized. Sub-groups of animals were euthanized four (4) hours after the final compound dose (52 hours after infection). […]

[2] = system: C. difficile strain 630; format: in vivo, Golden Syrian hamsters
[3] = Plasma concentrations in the murine C. difficile toxin model (LC/MS); format: in vivo; details: mice, over four hours
Method: We monitored the plasma concentrations of Example 6a following the IR, PO and IP administrations in the murine C. difficile toxin model (Example 63). Plasma concentrations of Example 6a were determined with the use of high pressure liquid chromatography (HPLC) and mass spectrometry (MS) following the administration of Example 6a. Plasma concentration curve of Example 6a was plotted over four hours (FIG. 5). […] It is noted that reduction of the IL-1β and MPO levels as well as improved colon histopathology correlates with the plasma concentrations of Example 6a.
To determine plasma concentration of compounds, blood (˜200 μl) was drawn by retro-orbital bleed, and compound concentration was determined by liquid chromatography (LC)/mass spectrometry (MS)(AB Sciex API-3000 LC/MS/MS system).

SMILES | toxin effect on colon length ([1]; PO, 52 hours after infection) | weight loss, time course [1] | survival until Day 10 ([2]; Example 5ae 50 mg/kg PO twice per day for 7 days) | median survival time / protection from mortality ([2]; PO twice per day, Example 5ae 50 mg/kg 7 days, vancomycin 5 mg/kg 5 days) | plasma concentration ([3]; IP administration, compared to IR) | plasma concentration ([3]; IR administration) | plasma concentration ([3]; PO administration, compared to IR)
O=C(Nc1ccc(C(F)(F)F)cn1)c1ccc(CN2C(=O)c3ccc(Cl)cc3NC(=O)[C@H]2Cc2ccccn2)cc1Cl [Example 5ae, (R)-2-Chloro-4-((8-chloro-2,5-dioxo-3-(pyridin-2-ylmethyl)-2,3-dihydro-1H-benzo[e][1,4]diazepin-4(5H)-yl)methyl)-N-(5-(trifluoromethyl)pyridin-2-yl)benzamide] | significantly reduced the toxin effect on colon length | significantly reduced weight loss 2.5 and 3.0 days after infection | 70% | significantly improved the median survival time | – | – | –
COc1ccc(NC(=O)c2ccc(CN3C(=O)c4ccc(Cl)cc4NC(=O)[C@H]3Cc3ccccn3)cc2F)nc1 [Example 6a, (R)-4-((8-Chloro-2,5-dioxo-3-(pyridin-2-ylmethyl)-2,3-dihydro-1H-benzo[e][1,4]diazepin-4(5H)-yl)methyl)-2-fluoro-N-(5-methoxypyridin-2-yl)benzamide] | – | significantly reduced weight loss 2.25, 2.5 and 3.0 days after infection | – | – | significantly higher plasma concentrations | low plasma concentrations | significantly higher plasma concentrations
